Experimental data: patent US20240325402A1, “MOMELOTINIB COMBINATION THERAPY” (GlaxoSmithKline LLC, priority 2021, published 2024)
pIC50: −log10 of the molar value. Structures can show the parent of a compound that is named as a salt. Where two headings read alike, the source gives them in different places.

Test system: NF-kB reporter activity
Assay: NF-kB luciferase reporter assay (TNFa-stimulated NF-kB Reporter-HEK293 cells)
Format: cell-based, human
Details: for inhibition at 10 µM / pIC50 / Percent Inhibition at 10 uM: NF-kB Reporter-HEK293 cells; for inhibition at 10 µM / Percent Inhibition at 10 uM: compound at 10 uM; for inhibition at 10 µM: read-out: Percent Inhibition at 10 uM
Experimental: NF-kB Reporter-HEK293 cell line (BPS Bioscience #60650); MEM medium (Hyclone #SH30024.01); Fetal bovine serum (Life Technologies #10082147); Non-essential amino acid (Corning 25-025-C1); Na-pyruvate (Hyclone #SH30239.01); Pen-strep (Hyclone #SV30010); Hygromycin B (Invitrogen/Thermo-Fisher #10687010); IKK-16 dihydrochloride—NF-kB inhibitor (Sigma SML1138); TNFa (R&D Systems 210-TA); ONE-Step luciferase assay system (BPS Bioscience #60690).
Cell culture. Cells were cultured in MEM medium with 10% FBS, 1% non-essential amino acid, 1 mM Na-pyruvate, 1% Pen-strep, and 50 μg/mL Hygromycin B.
To perform the NF-kB luciferase reporter assay, NF-kB Reporter—HEK293 cells were seeded at 30,000 cells per well into white clear-bottom 96-well microplate in 60 μL of assay medium (growth medium without Hygromycin B). Cells were incubated at 37° C. and 5% CO2 for 5 hours to allow them attach. A serial dilution of compounds was prepared in assay medium without Hygromycin B. Thirty μL of diluted compounds was added to the treatment wells at the end of the day. Thirty μL of assay medium with the same concentration of DMSO without compound was added to the control wells. One hundred μL of assay medium with DMSO was added to cell-free control wells for determining background luminescence. Cells were incubated at 37° C. and 5% CO2 overnight.
The next day ten μL of diluted human TNFa in assay medium was added to wells (final [TNFa]=10 ng/mL). Ten μL of assay medium was added to unstimulated control wells. Cells were incubated at 37° C. and 5% CO2 for 5-6 hours. After treatment, cells were lysed and the luciferase assay was performed using ONE-Step luciferase assay system: add 100 μL of One-Step Luciferase reagent per well and rock at room temperature for ˜30 minutes. Luminescence was measured using a luminometer (BioTek Synergy™ 2 microplate reader).

[1] = Homo sapiens, TNFa 10 ng/mL, curve fit with top and bottom locked, read-out: IC50 Lock top and bottom of curve
[2] = Homo sapiens, overnight compound, TNFa 10 ng/mL 5-6 hours, luciferase, read-out: IC50 against NF-kB reporter activity
[3] = TNFa 10 ng/mL, curve fit with top and bottom locked, read-out: IC50 Lock top and bottom of curve
[4] = overnight compound, TNFa 10 ng/mL 5-6 hours, luciferase, read-out: IC50 against NF-kB reporter activity

Row | SMILES | inhibition at 10 µM (Homo sapiens, TNFa 10 ng/mL) [%] | pIC50 [1] | pIC50 [2] | Percent Inhibition at 10 uM (TNFa 10 ng/mL) [%] | pIC50 [3] | pIC50 [4] | downregulation of NF-κB signaling in a luciferase assay (cellular data, compounds ran in parallel)
1 | Cc1noc2c1-c1ccccc1C(c1ccc(Cl)cc1)=N[C@H]2CC(N)=O [CPI-0610] | 78 | 6.27 | 6.57 | – | – | – | –
2 | Cc1cnc(Nc2ccc(OCCN3CCCC3)cc2)nc1Nc1cccc(S(=O)(=O)NC(C)(C)C)c1 [Fedratinib (TG101348)] | – | – | – | 99 | 5.54 | 5.21 | –
3 | O=C(c1ccc(Nc2nccc(-c3cc4ccccc4s3)n2)cc1)N1CCC(N2CCCC2)CC1 [IKK-16 dihydrochloride] | – | – | – | 88 | 6.59 | 6.48 | –
4 | N#CCNC(=O)c1ccc(-c2ccnc(Nc3ccc(N4CCOCC4)cc3)n2)cc1 [MMB/Momelotinib, N-(cyanomethyl)-4-(2-(4-morpholinophenylamino)pyrimidin-4-yl)benzamide] | 100 | 6.37 | 6.33 | – | – | – | downregulates NF-κB signaling
5 | C1=C/COCc2cc(ccc2OCCN2CCCC2)Nc2nccc(n2)-c2cccc(c2)COC/1 [Pacritinib (SB1518)] | 100 | 5.92 | 5.85 | – | – | – | –
6 | N#CC[C@H](C1CCCC1)n1cc(-c2ncnc3[nH]ccc23)cn1 [Ruxolitinib (INCB018424)] | -11 | – | – | – | – | – | –
